Source: ChEMBL document CHEMBL5584255, “Synthesis and antibacterial medicinal evaluation of carbothioamido hydrazonyl thiazolylquinolone with multitargeting antimicrobial potential to combat increasingly global resistance” (Eur J Med Chem, 2024)
In brackets after ≈: the same amount, converted by molar mass.

Key:
Assay type in all cases: functional
[1] = tested on: Escherichia coli; assay: Antibacterial activity against drug-resistant Escherichia coli by microbroth dilution method
[2] = tested on: Pseudomonas aeruginosa; assay: Antibacterial activity against Pseudomonas aeruginosa by microbroth dilution method
[3] = tested on: Pseudomonas aeruginosa; assay: Antibacterial activity against Pseudomonas aeruginosa ATCC 27853 by microbroth dilution method
[4] = tested on: Staphylococcus aureus; assay: Antibacterial activity against methicillin-resistant Staphylococcus aureus N315 by microbroth dilution method
[5] = tested on: Klebsiella pneumoniae; assay: Antibacterial activity against Klebsiella pneumoniae by microbroth dilution method
[6] = tested on: Candida albicans; assay: Antifungal activity against Candida albicans ATCC 90023
[7] = tested on: Enterococcus faecalis; assay: Antibacterial activity against drug-resistant Enterococcus faecalis by microbroth dilution method
[8] = tested on: Candida tropicalis; assay: Antifungal activity against drug-resistant Candida tropicalis
[9] = tested on: Candida parapsilosis; assay: Antifungal activity against Candida parapsilosis ATCC 22019; details: Lodderomyces parapsilosis
[10] = tested on: Candida albicans; assay: Antifungal activity against drug-resistant Candida albicans
[11] = tested on: Escherichia coli; assay: Antibacterial activity against Escherichia coli ATCC 25922 by microbroth dilution method
[12] = tested on: Staphylococcus aureus; assay: Antibacterial activity against Staphylococcus aureus ATCC 25923 by microbroth dilution method
[13] = tested on: Aspergillus fumigatus; assay: Antifungal activity against Aspergillus fumigatus
[14] = tested on: Staphylococcus aureus; assay: Antibacterial activity against drug-resistant Staphylococcus aureus by microbroth dilution method
[15] = tested on: Staphylococcus aureus; assay: Antibacterial activity against Staphylococcus aureus ATCC 29213 by microbroth dilution method
[16] = tested on: Acinetobacter baumannii; assay: Antibacterial activity against Acinetobacter baumannii by microbroth dilution method

| Compound | MIC [1] [µM] | MIC [2] [µM] | MIC [3] [µM] | MIC [4] [µM] | MIC [5] [µM] | MIC [6] [µM] | MIC [7] [µM] | MIC [8] [µM] | MIC [9] [µM] | MIC [10] [µM] | MIC [11] [µM] | MIC [12] [µM] | MIC [13] [µM] | MIC [14] [µM] | MIC [15] [µM] | MIC [16] [µM] |
| --- | --- | --- | --- | --- | --- | --- | --- | --- | --- | --- | --- | --- | --- | --- | --- | --- |
| CC(=O)Cn1cc(-c2csc(N)n2)c(=O)c2cc(F)c(Cl)cc21 | 729 (≈ 256 µg/mL) | 91 (≈ 32 µg/mL) | 91 (≈ 32 µg/mL) | 365 (≈ 128 µg/mL) | 729 (≈ 256 µg/mL) | 91 (≈ 32 µg/mL) | 365 (≈ 128 µg/mL) | 365 (≈ 128 µg/mL) | 182 (≈ 64 µg/mL) | 91 (≈ 32 µg/mL) | 182 (≈ 64 µg/mL) | 182 (≈ 64 µg/mL) | 365 (≈ 128 µg/mL) | 182 (≈ 64 µg/mL) | 365 (≈ 128 µg/mL) | 365 (≈ 128 µg/mL) |
| Cc1nc(-c2c[nH]c3c(F)cccc3c2=O)cs1 | 1970 (≈ 513 µg/mL) | 985 (≈ 256 µg/mL) | 492 (≈ 128 µg/mL) | 1970 (≈ 513 µg/mL) | 985 (≈ 256 µg/mL) | 985 (≈ 256 µg/mL) | 985 (≈ 256 µg/mL) | 492 (≈ 128 µg/mL) | 492 (≈ 128 µg/mL) | 985 (≈ 256 µg/mL) | 985 (≈ 256 µg/mL) | 985 (≈ 256 µg/mL) | 492 (≈ 128 µg/mL) | 1970 (≈ 513 µg/mL) | 1970 (≈ 513 µg/mL) | 492 (≈ 128 µg/mL) |
| Cc1nc(-c2c[nH]c3c(F)cc(F)cc3c2=O)cs1 | 1840 (≈ 513 µg/mL) | 1840 (≈ 513 µg/mL) | 1840 (≈ 513 µg/mL) | 460 (≈ 128 µg/mL) | 460 (≈ 128 µg/mL) | 460 (≈ 128 µg/mL) | 460 (≈ 128 µg/mL) | 921 (≈ 256 µg/mL) | 921 (≈ 256 µg/mL) | 1840 (≈ 513 µg/mL) | 921 (≈ 256 µg/mL) | 460 (≈ 128 µg/mL) | 921 (≈ 256 µg/mL) | 921 (≈ 256 µg/mL) | 460 (≈ 128 µg/mL) | 921 (≈ 256 µg/mL) |
| CC(=O)Cn1cc(-c2csc(C)n2)c(=O)c2cccc(F)c21 | 810 (≈ 256 µg/mL) | 1620 (≈ 512 µg/mL) | 405 (≈ 128 µg/mL) | 810 (≈ 256 µg/mL) | 1620 (≈ 512 µg/mL) | 810 (≈ 256 µg/mL) | 810 (≈ 256 µg/mL) | 405 (≈ 128 µg/mL) | 405 (≈ 128 µg/mL) | 810 (≈ 256 µg/mL) | 810 (≈ 256 µg/mL) | 405 (≈ 128 µg/mL) | 1620 (≈ 512 µg/mL) | 810 (≈ 256 µg/mL) | 810 (≈ 256 µg/mL) | 405 (≈ 128 µg/mL) |
| C/C(Cn1cc(-c2csc(C)n2)c(=O)c2cc(F)cc(F)c21)=N\NC(N)=S | 1260 (≈ 513 µg/mL) | 629 (≈ 256 µg/mL) | 629 (≈ 256 µg/mL) | 1260 (≈ 513 µg/mL) | 314 (≈ 128 µg/mL) | 1260 (≈ 513 µg/mL) | 1260 (≈ 513 µg/mL) | 1260 (≈ 513 µg/mL) | 157 (≈ 64 µg/mL) | 1260 (≈ 513 µg/mL) | 1260 (≈ 513 µg/mL) | 1260 (≈ 513 µg/mL) | 629 (≈ 256 µg/mL) | 1260 (≈ 513 µg/mL) | 629 (≈ 256 µg/mL) | 629 (≈ 256 µg/mL) |
| CCOC(=O)c1cn(C/C(C)=N/NC(N)=S)c2cc(F)c(F)cc2c1=O | 670 (≈ 256 µg/mL) | 670 (≈ 256 µg/mL) | 335 (≈ 128 µg/mL) | 1340 (≈ 512 µg/mL) | 670 (≈ 256 µg/mL) | 670 (≈ 256 µg/mL) | 335 (≈ 128 µg/mL) | 670 (≈ 256 µg/mL) | 335 (≈ 128 µg/mL) | 1340 (≈ 512 µg/mL) | 670 (≈ 256 µg/mL) | 670 (≈ 256 µg/mL) | 670 (≈ 256 µg/mL) | 670 (≈ 256 µg/mL) | 335 (≈ 128 µg/mL) | 335 (≈ 128 µg/mL) |
| CC(=O)Cn1cc(-c2csc(N)n2)c(=O)c2cc(F)c(F)cc21 | 764 (≈ 256 µg/mL) | 382 (≈ 128 µg/mL) | 382 (≈ 128 µg/mL) | 382 (≈ 128 µg/mL) | 764 (≈ 256 µg/mL) | 382 (≈ 128 µg/mL) | 382 (≈ 128 µg/mL) | 764 (≈ 256 µg/mL) | 764 (≈ 256 µg/mL) | 764 (≈ 256 µg/mL) | 382 (≈ 128 µg/mL) | 382 (≈ 128 µg/mL) | 382 (≈ 128 µg/mL) | 382 (≈ 128 µg/mL) | 382 (≈ 128 µg/mL) | 382 (≈ 128 µg/mL) |
| CC(=O)Cn1cc(-c2csc(N)n2)c(=O)c2cc(F)ccc21 | 404 (≈ 128 µg/mL) | 404 (≈ 128 µg/mL) | 404 (≈ 128 µg/mL) | 404 (≈ 128 µg/mL) | 807 (≈ 256 µg/mL) | 51 (≈ 16.2 µg/mL) | 807 (≈ 256 µg/mL) | 404 (≈ 128 µg/mL) | 1620 (≈ 513 µg/mL) | 404 (≈ 128 µg/mL) | 404 (≈ 128 µg/mL) | 202 (≈ 64.1 µg/mL) | 404 (≈ 128 µg/mL) | 404 (≈ 128 µg/mL) | 404 (≈ 128 µg/mL) | 807 (≈ 256 µg/mL) |
| CC(=O)Cn1cc(C(C)=O)c(=O)c2cc(F)c(Cl)cc21 | 868 (≈ 257 µg/mL) | 434 (≈ 128 µg/mL) | 434 (≈ 128 µg/mL) | 868 (≈ 257 µg/mL) | 868 (≈ 257 µg/mL) | 868 (≈ 257 µg/mL) | 868 (≈ 257 µg/mL) | 1740 (≈ 513 µg/mL) | 217 (≈ 64.2 µg/mL) | 1740 (≈ 513 µg/mL) | 868 (≈ 257 µg/mL) | 868 (≈ 257 µg/mL) | 868 (≈ 257 µg/mL) | 1740 (≈ 513 µg/mL) | 1740 (≈ 513 µg/mL) | 868 (≈ 257 µg/mL) |
| C/C(Cn1cc(-c2csc(C)n2)c(=O)c2cc(F)ccc21)=N\NC(N)=S | 658 (≈ 256 µg/mL) | 658 (≈ 256 µg/mL) | 658 (≈ 256 µg/mL) | 658 (≈ 256 µg/mL) | 165 (≈ 64.3 µg/mL) | 658 (≈ 256 µg/mL) | 1320 (≈ 513 µg/mL) | 1320 (≈ 513 µg/mL) | 329 (≈ 128 µg/mL) | 658 (≈ 256 µg/mL) | 658 (≈ 256 µg/mL) | 658 (≈ 256 µg/mL) | 658 (≈ 256 µg/mL) | 658 (≈ 256 µg/mL) | 658 (≈ 256 µg/mL) | 658 (≈ 256 µg/mL) |
